A short description of one data set: The drug is tested on Odoribacter splanchnicus strain: fecal isolate for biotransformation. The drug concentrations were measured before and after a 12-h incubation by liquid-chromatography-coupled mass spectrometry (LC–MS). The note with it: 2 µM.
Regarding `CNS(=O)(=O)Cc1ccc2[nH]cc(CCN(C)C)c2c1.O=C(O)CCC(=O)O` [SUMATRIPTAN SUCCINATE], the “Bacterial Biotransformation” value was “Compound NOT metabolized”.

In the case of `CC(=O)OCC(=O)[C@@]1(O)[C@@H](C)C[C@H]2[C@@H]3CCC4=CC(=O)C=C[C@]4(C)[C@@]3(F)[C@@H](O)C[C@@]21C` [BETAMETHASONE ACETATE], the “Bacterial Biotransformation” value is recorded as “Compound metabolized”.

A further data set in a line: The drug is tested on Ruminococcus lactaris strain: ATCC29176 for biotransformation. The drug concentrations were measured before and after a 12-h incubation by liquid-chromatography-coupled mass spectrometry (LC–MS). The note with it: 2 µM.
In the case of `CNS(=O)(=O)Cc1ccc2[nH]cc(CCN(C)C)c2c1.O=C(O)CCC(=O)O` [SUMATRIPTAN SUCCINATE], the “Bacterial Biotransformation” value was “Compound NOT metabolized”.

The next data set is described as follows: The drug is tested on Bacteroides xylanisolvens strain: DSM18836 for biotransformation. The drug concentrations were measured before and after a 12-h incubation by liquid-chromatography-coupled mass spectrometry (LC–MS). The note with it: 2 µM.
Consider `CNS(=O)(=O)Cc1ccc2[nH]cc(CCN(C)C)c2c1.O=C(O)CCC(=O)O` [SUMATRIPTAN SUCCINATE], for which the “Bacterial Biotransformation” value is listed as “Compound NOT metabolized”.

For the next data set the following is noted: roseburia intestinalis, 12 h, 2 µM.
Description: The drug is tested on Roseburia intestinalis strain: L1-82 for biotransformation. The drug concentrations were measured before and after a 12-h incubation by liquid-chromatography-coupled mass spectrometry (LC–MS)
Regarding `CNS(=O)(=O)Cc1ccc2[nH]cc(CCN(C)C)c2c1.O=C(O)CCC(=O)O` [SUMATRIPTAN SUCCINATE], the “Bacterial Biotransformation” value is recorded as “Compound NOT metabolized”.

With `CC(=O)OCC(=O)[C@@]1(O)[C@@H](C)C[C@H]2[C@@H]3CCC4=CC(=O)C=C[C@]4(C)[C@@]3(F)[C@@H](O)C[C@@]21C` [BETAMETHASONE ACETATE], the “Bacterial Biotransformation” value is on record as “Compound NOT metabolized”.

The nature of the next data set: The drug is tested on Ruminococcus torques strain: ATCC27756 for biotransformation. The drug concentrations were measured before and after a 12-h incubation by liquid-chromatography-coupled mass spectrometry (LC–MS). In kind it is ADME. More on the design: dose 2 uM, timepoint 0 vs 12 hours. The note with it: 2 µM.
With `CNS(=O)(=O)Cc1ccc2[nH]cc(CCN(C)C)c2c1.O=C(O)CCC(=O)O` [SUMATRIPTAN SUCCINATE], the “Bacterial Biotransformation” value is reported as “Compound NOT metabolized”.

The next data set in a line: The drug is tested on Coprococcus comes strain: ATCC27758 for biotransformation. The drug concentrations were measured before and after a 12-h incubation by liquid-chromatography-coupled mass spectrometry (LC–MS). In kind it is ADME. Also on record: dose 2 uM, timepoint 0 vs 12 hours. The note with it: 2 µM.
`CNS(=O)(=O)Cc1ccc2[nH]cc(CCN(C)C)c2c1.O=C(O)CCC(=O)O` [SUMATRIPTAN SUCCINATE]: the “Bacterial Biotransformation” value was “Compound NOT metabolized”.

With `CC(=O)OCC(=O)[C@@]1(O)[C@@H](C)C[C@H]2[C@@H]3CCC4=CC(=O)C=C[C@]4(C)[C@@]3(F)[C@@H](O)C[C@@]21C` [BETAMETHASONE ACETATE], the “Bacterial Biotransformation” value is “Compound NOT metabolized”.

The nature of the next data set: The drug is tested on Providencia rettgeri strain: DSM1131 for biotransformation. The drug concentrations were measured before and after a 12-h incubation by liquid-chromatography-coupled mass spectrometry (LC–MS). In kind it is ADME. More on the design: dose 2 uM, timepoint 0 vs 12 hours. The note with it: 2 µM.
Regarding `CNS(=O)(=O)Cc1ccc2[nH]cc(CCN(C)C)c2c1.O=C(O)CCC(=O)O` [SUMATRIPTAN SUCCINATE], the “Bacterial Biotransformation” value is on record as “Compound NOT metabolized”.

As to `CC(=O)OCC(=O)[C@@]1(O)[C@@H](C)C[C@H]2[C@@H]3CCC4=CC(=O)C=C[C@]4(C)[C@@]3(F)[C@@H](O)C[C@@]21C` [BETAMETHASONE ACETATE], the “Bacterial Biotransformation” value is given as “Compound NOT metabolized”.

The nature of a further data set: The drug is tested on Eubacterium ventriosum strain: ATCC27560 for biotransformation. The drug concentrations were measured before and after a 12-h incubation by liquid-chromatography-coupled mass spectrometry (LC–MS). Type of data set: ADME. Also on record: dose 2 uM, timepoint 0 vs 12 hours. The note with it: 2 µM.
On to `CNS(=O)(=O)Cc1ccc2[nH]cc(CCN(C)C)c2c1.O=C(O)CCC(=O)O` [SUMATRIPTAN SUCCINATE], for which the “Bacterial Biotransformation” value is given as “Compound NOT metabolized”.

As for `CC(=O)OCC(=O)[C@@]1(O)[C@@H](C)C[C@H]2[C@@H]3CCC4=CC(=O)C=C[C@]4(C)[C@@]3(F)[C@@H](O)C[C@@]21C` [BETAMETHASONE ACETATE], the “Bacterial Biotransformation” value was “Compound NOT metabolized”.

The nature of the next data set: The drug is tested on Dorea formicigenerans strain: ATCC27755 for biotransformation. The drug concentrations were measured before and after a 12-h incubation by liquid-chromatography-coupled mass spectrometry (LC–MS). The note with it: 2 µM.
Consider `CNS(=O)(=O)Cc1ccc2[nH]cc(CCN(C)C)c2c1.O=C(O)CCC(=O)O` [SUMATRIPTAN SUCCINATE], for which the “Bacterial Biotransformation” value is “Compound NOT metabolized”.

Consider `CC(=O)OCC(=O)[C@@]1(O)[C@@H](C)C[C@H]2[C@@H]3CCC4=CC(=O)C=C[C@]4(C)[C@@]3(F)[C@@H](O)C[C@@]21C` [BETAMETHASONE ACETATE], for which the “Bacterial Biotransformation” value is recorded as “Compound NOT metabolized”.

A short description of another data set: The drug is tested on Clostridium sporogenes strain: ATCC15579 for biotransformation. The drug concentrations were measured before and after a 12-h incubation by liquid-chromatography-coupled mass spectrometry (LC–MS). The note with it: 2 µM.
For the compound `CNS(=O)(=O)Cc1ccc2[nH]cc(CCN(C)C)c2c1.O=C(O)CCC(=O)O` [SUMATRIPTAN SUCCINATE], the “Bacterial Biotransformation” value is reported as “Compound NOT metabolized”.

The nature of a further data set: The drug is tested on Enterococcus faecalis strain: V583 for biotransformation. The drug concentrations were measured before and after a 12-h incubation by liquid-chromatography-coupled mass spectrometry (LC–MS). The note with it: 2 µM.
As to `CNS(=O)(=O)Cc1ccc2[nH]cc(CCN(C)C)c2c1.O=C(O)CCC(=O)O` [SUMATRIPTAN SUCCINATE], the “Bacterial Biotransformation” value is recorded as “Compound NOT metabolized”.

In the case of `CC(=O)OCC(=O)[C@@]1(O)[C@@H](C)C[C@H]2[C@@H]3CCC4=CC(=O)C=C[C@]4(C)[C@@]3(F)[C@@H](O)C[C@@]21C` [BETAMETHASONE ACETATE], the “Bacterial Biotransformation” value is listed as “Compound NOT metabolized”.

The next data set in a line: The drug is tested on Bacteroides fragilis strain: HMW615 for biotransformation. The drug concentrations were measured before and after a 12-h incubation by liquid-chromatography-coupled mass spectrometry (LC–MS). The note with it: 2 µM.
Regarding `CC(=O)OCC(=O)[C@@]1(O)[C@@H](C)C[C@H]2[C@@H]3CCC4=CC(=O)C=C[C@]4(C)[C@@]3(F)[C@@H](O)C[C@@]21C` [BETAMETHASONE ACETATE], the “Bacterial Biotransformation” value was “Compound metabolized”.

The conditions of a further data set: segatella copri, 12 h, 2 µM.
Description: The drug is tested on Prevotella copri strain: DSM18205 for biotransformation. The drug concentrations were measured before and after a 12-h incubation by liquid-chromatography-coupled mass spectrometry (LC–MS)
On to `CNS(=O)(=O)Cc1ccc2[nH]cc(CCN(C)C)c2c1.O=C(O)CCC(=O)O` [SUMATRIPTAN SUCCINATE], for which the “Bacterial Biotransformation” value was “Compound NOT metabolized”.

Turning to `CC(=O)OCC(=O)[C@@]1(O)[C@@H](C)C[C@H]2[C@@H]3CCC4=CC(=O)C=C[C@]4(C)[C@@]3(F)[C@@H](O)C[C@@]21C` [BETAMETHASONE ACETATE], the “Bacterial Biotransformation” value is reported as “Compound NOT metabolized”.

A short description of another data set: The drug is tested on Bifidobacterium ruminantium strain: fecal isolate for biotransformation. The drug concentrations were measured before and after a 12-h incubation by liquid-chromatography-coupled mass spectrometry (LC–MS). The note with it: 2 µM.
Turning to `CNS(=O)(=O)Cc1ccc2[nH]cc(CCN(C)C)c2c1.O=C(O)CCC(=O)O` [SUMATRIPTAN SUCCINATE], the “Bacterial Biotransformation” value was “Compound NOT metabolized”.

The conditions of the next data set: akkermansia muciniphila, 12 h, 2 µM.
Description: The drug is tested on Akkermansia muciniphila strain: ATCC BAA-835 for biotransformation. The drug concentrations were measured before and after a 12-h incubation by liquid-chromatography-coupled mass spectrometry (LC–MS)
For `CNS(=O)(=O)Cc1ccc2[nH]cc(CCN(C)C)c2c1.O=C(O)CCC(=O)O` [SUMATRIPTAN SUCCINATE], the “Bacterial Biotransformation” value is given as “Compound NOT metabolized”.

For `CC(=O)OCC(=O)[C@@]1(O)[C@@H](C)C[C@H]2[C@@H]3CCC4=CC(=O)C=C[C@]4(C)[C@@]3(F)[C@@H](O)C[C@@]21C` [BETAMETHASONE ACETATE], the “Bacterial Biotransformation” value is “Compound NOT metabolized”.

Another data set is described as follows: The drug is tested on Alistipes indistinctus strain: DSM22520 for biotransformation. The drug concentrations were measured before and after a 12-h incubation by liquid-chromatography-coupled mass spectrometry (LC–MS). The note with it: 2 µM.
As to `CNS(=O)(=O)Cc1ccc2[nH]cc(CCN(C)C)c2c1.O=C(O)CCC(=O)O` [SUMATRIPTAN SUCCINATE], the “Bacterial Biotransformation” value is reported as “Compound NOT metabolized”.

As to `CC(=O)OCC(=O)[C@@]1(O)[C@@H](C)C[C@H]2[C@@H]3CCC4=CC(=O)C=C[C@]4(C)[C@@]3(F)[C@@H](O)C[C@@]21C` [BETAMETHASONE ACETATE], the “Bacterial Biotransformation” value is given as “Compound NOT metabolized”.

Another data set is described as follows: The drug is tested on Bacteroides vulgatus strain: ATCC8482 for biotransformation. The drug concentrations were measured before and after a 12-h incubation by liquid-chromatography-coupled mass spectrometry (LC–MS). The note with it: phocaeicola vulgatus, 2 µM.
In the case of `CNS(=O)(=O)Cc1ccc2[nH]cc(CCN(C)C)c2c1.O=C(O)CCC(=O)O` [SUMATRIPTAN SUCCINATE], the “Bacterial Biotransformation” value is given as “Compound NOT metabolized”.

For another data set the following is noted: anaerostipes sp., 12 h, 2 µM.
Description: The drug is tested on Anaerostipes sp. strain: fecal isolate for biotransformation. The drug concentrations were measured before and after a 12-h incubation by liquid-chromatography-coupled mass spectrometry (LC–MS)
In the case of `CNS(=O)(=O)Cc1ccc2[nH]cc(CCN(C)C)c2c1.O=C(O)CCC(=O)O` [SUMATRIPTAN SUCCINATE], the “Bacterial Biotransformation” value is “Compound NOT metabolized”.

On to `CC(=O)OCC(=O)[C@@]1(O)[C@@H](C)C[C@H]2[C@@H]3CCC4=CC(=O)C=C[C@]4(C)[C@@]3(F)[C@@H](O)C[C@@]21C` [BETAMETHASONE ACETATE], for which the “Bacterial Biotransformation” value was “Compound NOT metabolized”.

Another data set in a line: The drug is tested on Blautia hansenii strain: DSM20583 for biotransformation. The drug concentrations were measured before and after a 12-h incubation by liquid-chromatography-coupled mass spectrometry (LC–MS). The note with it: 2 µM.
For `CNS(=O)(=O)Cc1ccc2[nH]cc(CCN(C)C)c2c1.O=C(O)CCC(=O)O` [SUMATRIPTAN SUCCINATE], the “Bacterial Biotransformation” value is reported as “Compound NOT metabolized”.

`CC(=O)OCC(=O)[C@@]1(O)[C@@H](C)C[C@H]2[C@@H]3CCC4=CC(=O)C=C[C@]4(C)[C@@]3(F)[C@@H](O)C[C@@]21C` [BETAMETHASONE ACETATE]: the “Bacterial Biotransformation” value is listed as “Compound metabolized”.

Source of the values: ChEMBL document CHEMBL5303573, “Mapping human microbiome drug metabolism by gut bacteria and their genes” (Nature, 2019).
